From article PMC12137546, “Development of a microarray based telomerase binding assay reveals unusual binding of a cytochalasin derivative” (Scientific Reports, 2025) come the findings set out here.

For orientation: pKd means the negative decadic logarithm of the Kd, by convention in mol/L. One may read the pEC50 as the EC50 on a negative log10 scale, so that one unit is a factor of ten.

Assay [1] addresses T1, telomerase reverse transcriptase (TERT) (Homo sapiens, UniProt O14746). Nature of the assay: microscale thermophoresis; also microarray displacement of Cy5 primer cocktail (EC50 […]) and TRAP inhibition in cell lysate. Format: binding. Details: recombinant His-tagged full-length human TERT (pET28aTERT, E. coli, urea/N-lauroylsarcosine solubilized, Ni-IMAC). On the technique in general: MST reads how a fluorescent partner responds to local heating, with and without ligand.

Assay [2] has as its target T1, telomerase reverse transcriptase (TERT). Nature of the assay: microarray displacement of Cy5 primer cocktail from spotted TERT and lysates; TRAP inhibition in lysate at […]. Type of assay: binding. On the set-up: recombinant His-tagged full-length human TERT (pET28aTERT, E. coli) and cell lysates.

pEC50, pKd: −log10 of the molar value.

T1 sequence (O14746 whole entry): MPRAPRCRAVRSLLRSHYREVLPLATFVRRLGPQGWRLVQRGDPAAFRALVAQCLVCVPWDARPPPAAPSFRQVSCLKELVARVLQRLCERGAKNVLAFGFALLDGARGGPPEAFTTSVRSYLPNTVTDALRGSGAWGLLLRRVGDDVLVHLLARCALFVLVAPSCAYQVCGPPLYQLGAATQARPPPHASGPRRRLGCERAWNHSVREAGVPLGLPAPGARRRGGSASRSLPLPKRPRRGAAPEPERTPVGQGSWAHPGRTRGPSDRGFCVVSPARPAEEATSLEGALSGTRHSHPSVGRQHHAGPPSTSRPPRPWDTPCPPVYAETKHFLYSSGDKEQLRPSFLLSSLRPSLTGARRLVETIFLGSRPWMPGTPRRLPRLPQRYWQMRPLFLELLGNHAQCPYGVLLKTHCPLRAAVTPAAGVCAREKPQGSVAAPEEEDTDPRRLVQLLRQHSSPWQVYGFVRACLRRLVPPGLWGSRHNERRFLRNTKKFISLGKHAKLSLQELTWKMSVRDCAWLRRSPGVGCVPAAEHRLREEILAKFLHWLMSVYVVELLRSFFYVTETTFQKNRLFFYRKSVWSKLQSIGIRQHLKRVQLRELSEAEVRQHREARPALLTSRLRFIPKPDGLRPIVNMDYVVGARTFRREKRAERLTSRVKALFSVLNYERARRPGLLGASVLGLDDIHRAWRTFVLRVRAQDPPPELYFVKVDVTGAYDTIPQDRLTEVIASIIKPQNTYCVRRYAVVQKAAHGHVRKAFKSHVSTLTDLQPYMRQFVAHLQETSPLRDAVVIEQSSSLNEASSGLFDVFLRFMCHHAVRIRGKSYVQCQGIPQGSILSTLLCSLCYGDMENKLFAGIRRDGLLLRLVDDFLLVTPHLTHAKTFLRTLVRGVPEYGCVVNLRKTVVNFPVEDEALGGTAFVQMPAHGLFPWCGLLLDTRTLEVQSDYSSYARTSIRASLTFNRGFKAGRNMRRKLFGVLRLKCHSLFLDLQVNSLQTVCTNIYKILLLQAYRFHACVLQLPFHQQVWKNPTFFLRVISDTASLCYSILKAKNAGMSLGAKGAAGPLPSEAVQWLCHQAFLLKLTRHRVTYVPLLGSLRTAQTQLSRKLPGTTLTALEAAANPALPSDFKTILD

On to `O=C(O[C@@H]1Cc2c(O)cc(O)cc2O[C@@H]1c1cc(O)c(O)c(O)c1)c1cc(O)c(O)c(O)c1` [EGCG, epigallocatechin-3-gallate], for which the negative logarithm of the Kd (pKd) in assay [1] was approximately 4.59. Turning to `C=C1[C@@H](C)C2[C@H](Cc3ccc(I)cc3)NC(=O)[C@@]23C(/C=C/C[C@H](C)C[C@@](C)(O)/C=C/[C@H]3OC(C)=O)[C@@H]1O` (some centres unmarked) [compound 7, 4’-iodo cytochalasin H], the pEC50 in assay [2] is 5.36 to 5.56.
